{"source": "patent EP2931723B1", "about": "“NEW BICYCLIC COMPOUNDS AND THEIR USE AS ANTIBACTERIAL AGENTS AND -LACTAMASE INHIBITORS” (Fedora Pharmaceuticals Inc., priority 2012, dated 2014)", "experiment_in_all_cases": "MIC, antibacterial and synergistic activity", "format_in_all_cases": "cell-based", "key": {"E. coli ATCC 25922": {"test_system": "E. coli ATCC 25922", "conditions": "E. coli ATCC 25922 (Wt); for MIC Aztreonam + inhibitor: Aztreonam + inhibitor at 4 µg/mL; for MIC Ceftazidime + inhibitor: Ceftazidime + inhibitor at 4 µg/mL; for MIC Meropenem + inhibitor: Meropenem + inhibitor at 4 µg/mL; for MIC: Escherichia coli, ATCC25922, substance alone"}, "K. pneumo JMI 4106": {"test_system": "K. pneumo JMI 4106", "conditions": "K. pneumo JMI 4106 (KPC-3, TEM-1, SHV-12, SHV-141); for MIC Aztreonam + inhibitor: Aztreonam + inhibitor at 4 µg/mL; for MIC Ceftazidime + inhibitor: Ceftazidime + inhibitor at 4 µg/mL; for MIC Meropenem + inhibitor: Meropenem + inhibitor at 4 µg/mL; for MIC: substance alone, read-out: MIC"}, "K. pneumo JMI 2681": {"test_system": "K. pneumo JMI 2681", "conditions": "K. pneumo JMI 2681 (Oxa-48 (Cpase)); for MIC Aztreonam + inhibitor: Aztreonam + inhibitor at 4 µg/mL; for MIC Ceftazidime + inhibitor: Ceftazidime + inhibitor at 4 µg/mL; for MIC Meropenem + inhibitor: Meropenem + inhibitor at 4 µg/mL; for MIC: substance alone, read-out: MIC"}, "E. cloacae JMI 36": {"test_system": "E. cloacae JMI 36", "conditions": "E. cloacae JMI 36 (P99); for MIC Aztreonam + inhibitor: Aztreonam + inhibitor at 4 µg/mL; for MIC Ceftazidime + inhibitor: Ceftazidime + inhibitor at 4 µg/mL; for MIC Meropenem + inhibitor: Meropenem + inhibitor at 4 µg/mL; for MIC: Enterobacter cloacae, JMI36, substance alone, read-out: MIC"}, "K. pneumo JMI 2674": {"test_system": "K. pneumo JMI 2674", "conditions": "K. pneumo JMI 2674 (CTX-M15 (ESBL)); substance alone"}, "P. aerug JMI 2686": {"test_system": "P. aerug JMI 2686", "conditions": "P. aerug JMI 2686 (KPC-2 (Cpase)); substance alone"}, "E. coli JMI 10768": {"test_system": "E. coli JMI 10768", "conditions": "E. coli JMI 10768 (CTX-M15 (Weak ESBL)); Meropenem + inhibitor at 4 µg/mL"}, "E. coli JMI 10770": {"test_system": "E. coli JMI 10770", "conditions": "Escherichia coli, JMI10770; E. coli JMI 10770 (CTX-M15 (Hyper ESBL)); substance alone"}, "E. coli JMI 11103": {"test_system": "E. coli JMI 11103", "conditions": "for MIC Aztreonam + inhibitor / MIC Ceftazidime + inhibitor / MIC Meropenem + inhibitor: E. coli JMI 11103 (CTX-M15 (Intermediate ESBL)); for MIC Aztreonam + inhibitor: Aztreonam + inhibitor at 4 µg/mL; for MIC Ceftazidime + inhibitor: Ceftazidime + inhibitor at 4 µg/mL; for MIC Meropenem + inhibitor: Meropenem + inhibitor at 4 µg/mL; for MIC: Escherichia coli, JMI11103, E. coli JMI 11103 (CTX-M15 (Intermediate ESBL)), substance alone"}}, "data": [{"smiles": "O=C(NO[C@H]1CCNC1)[C@@H]1CC[C@@H]2CN1C(=O)N2OS(=O)(=O)O", "note": "[Ex. 1, (2S,5R)-7-Oxo-N-[(3S)-pyrrolidin-3-yloxy]-6-(sulfooxy)-1,6-diazabicyclo[3.2.1]octane-2-carboxamide]", "values": [{"measurement": "MIC Aztreonam + inhibitor", "setting": "E. coli ATCC 25922", "result": "≤.062 µg/mL"}, {"measurement": "MIC Ceftazidime + inhibitor", "setting": "E. coli ATCC 25922", "result": "≤0.25", "unit": "µg/mL"}, {"measurement": "MIC Meropenem + inhibitor", "setting": "E. coli ATCC 25922", "result": "≤.031 µg/mL"}, {"measurement": "MIC", "setting": "E. coli ATCC 25922", "result": 8, "unit": "µg/mL"}, {"measurement": "MIC Aztreonam + inhibitor", "setting": "K. pneumo JMI 4106", "result": 0.25, "unit": "µg/mL"}, {"measurement": "MIC Ceftazidime + inhibitor", "setting": "K. pneumo JMI 4106", "result": "≤0.25", "unit": "µg/mL"}, {"measurement": "MIC Meropenem + inhibitor", "setting": "K. pneumo JMI 4106", "result": "≤.031 µg/mL"}, {"measurement": "MIC", "setting": "K. pneumo JMI 4106", "result": 16, "unit": "µg/mL"}, {"measurement": "MIC Aztreonam + inhibitor", "setting": "K. pneumo JMI 2681", "result": 4, "unit": "µg/mL"}, {"measurement": "MIC Ceftazidime + inhibitor", "setting": "K. pneumo JMI 2681", "result": 4, "unit": "µg/mL"}, {"measurement": "MIC Meropenem + inhibitor", "setting": "K. pneumo JMI 2681", "result": ">2", "unit": "µg/mL"}, {"measurement": "MIC", "setting": "K. pneumo JMI 2681", "result": "> 16", "unit": "µg/mL"}, {"measurement": "MIC Aztreonam + inhibitor", "setting": "E. cloacae JMI 36", "result": 0.25, "unit": "µg/mL"}, {"measurement": "MIC Ceftazidime + inhibitor", "setting": "E. cloacae JMI 36", "result": 1, "unit": "µg/mL"}, {"measurement": "MIC Meropenem + inhibitor", "setting": "E. cloacae JMI 36", "result": 0.062, "unit": "µg/mL"}, {"measurement": "MIC", "setting": "E. cloacae JMI 36", "result": "> 16", "unit": "µg/mL"}, {"measurement": "MIC", "setting": "K. pneumo JMI 2674", "result": "> 16", "unit": "µg/mL"}, {"measurement": "MIC", "setting": "P. aerug JMI 2686", "result": "> 16", "unit": "µg/mL"}, {"measurement": "MIC Meropenem + inhibitor", "setting": "E. coli JMI 10768", "result": "≤.031 µg/mL"}, {"measurement": "MIC", "setting": "E. coli JMI 10770", "result": 8, "unit": "µg/mL"}, {"measurement": "MIC Aztreonam + inhibitor", "setting": "E. coli JMI 11103", "result": "≤.062 µg/mL"}, {"measurement": "MIC Ceftazidime + inhibitor", "setting": "E. coli JMI 11103", "result": "≤0.25", "unit": "µg/mL"}, {"measurement": "MIC Meropenem + inhibitor", "setting": "E. coli JMI 11103", "result": "≤.031 µg/mL"}, {"measurement": "MIC", "setting": "E. coli JMI 11103", "result": 8, "unit": "µg/mL"}]}, {"smiles": "O=C(NO[C@H]1CCCNC1)[C@@H]1CC[C@@H]2CN1C(=O)N2OS(=O)(=O)O", "note": "[Ex. 2, (2S,5R)-7-Oxo-N-[(3S)-piperidin-3-yloxy] -6-(sulfooxy)-1,6-diazabicyclo[3.2.1]octane-2-carboxamide]", "values": [{"measurement": "MIC Aztreonam + inhibitor", "setting": "E. coli ATCC 25922", "result": "≤.062 µg/mL"}, {"measurement": "MIC Ceftazidime + inhibitor", "setting": "E. coli ATCC 25922", "result": "≤0.25", "unit": "µg/mL"}, {"measurement": "MIC Meropenem + inhibitor", "setting": "E. coli ATCC 25922", "result": "≤.031 µg/mL"}, {"measurement": "MIC", "setting": "E. coli ATCC 25922", "result": 1, "unit": "µg/mL"}, {"measurement": "MIC Aztreonam + inhibitor", "setting": "K. pneumo JMI 4106", "result": "≤.062 µg/mL"}, {"measurement": "MIC Ceftazidime + inhibitor", "setting": "K. pneumo JMI 4106", "result": "≤0.25", "unit": "µg/mL"}, {"measurement": "MIC Meropenem + inhibitor", "setting": "K. pneumo JMI 4106", "result": "≤.031 µg/mL"}, {"measurement": "MIC", "setting": "K. pneumo JMI 4106", "result": "> 16", "unit": "µg/mL"}, {"measurement": "MIC Aztreonam + inhibitor", "setting": "K. pneumo JMI 2681", "result": 2, "unit": "µg/mL"}, {"measurement": "MIC Ceftazidime + inhibitor", "setting": "K. pneumo JMI 2681", "result": 1, "unit": "µg/mL"}, {"measurement": "MIC Meropenem + inhibitor", "setting": "K. pneumo JMI 2681", "result": ">2", "unit": "µg/mL"}, {"measurement": "MIC", "setting": "K. pneumo JMI 2681", "result": "> 16", "unit": "µg/mL"}, {"measurement": "MIC Aztreonam + inhibitor", "setting": "E. cloacae JMI 36", "result": 0.125, "unit": "µg/mL"}, {"measurement": "MIC Ceftazidime + inhibitor", "setting": "E. cloacae JMI 36", "result": "≤0.25", "unit": "µg/mL"}, {"measurement": "MIC Meropenem + inhibitor", "setting": "E. cloacae JMI 36", "result": 0.125, "unit": "µg/mL"}, {"measurement": "MIC", "setting": "E. cloacae JMI 36", "result": "> 16", "unit": "µg/mL"}, {"measurement": "MIC", "setting": "K. pneumo JMI 2674", "result": "> 16", "unit": "µg/mL"}, {"measurement": "MIC", "setting": "P. aerug JMI 2686", "result": "> 16", "unit": "µg/mL"}, {"measurement": "MIC Meropenem + inhibitor", "setting": "E. coli JMI 10768", "result": "≤.031 µg/mL"}, {"measurement": "MIC", "setting": "E. coli JMI 10770", "result": 4, "unit": "µg/mL"}, {"measurement": "MIC Aztreonam + inhibitor", "setting": "E. coli JMI 11103", "result": "≤.062 µg/mL"}, {"measurement": "MIC Ceftazidime + inhibitor", "setting": "E. coli JMI 11103", "result": "≤0.25", "unit": "µg/mL"}, {"measurement": "MIC Meropenem + inhibitor", "setting": "E. coli JMI 11103", "result": "≤.031 µg/mL"}, {"measurement": "MIC", "setting": "E. coli JMI 11103", "result": 4, "unit": "µg/mL"}]}, {"smiles": "NCCONC(=O)[C@@H]1CC[C@@H]2CN1C(=O)N2OS(=O)(=O)O", "note": "[Ex. 3, (2S,5R)-N-(2-Aminoethoxy)-7-oxo-6-(sulfooxy)-1,6-diazabicyclo[3.2.1]octane-2-carboxamide]", "values": [{"measurement": "MIC Aztreonam + inhibitor", "setting": "E. coli ATCC 25922", "result": "≤0.062", "unit": "µg/mL"}, {"measurement": "MIC Ceftazidime + inhibitor", "setting": "E. coli ATCC 25922", "result": "≤0.25", "unit": "µg/mL"}, {"measurement": "MIC Meropenem + inhibitor", "setting": "E. coli ATCC 25922", "result": "≤0.0312", "unit": "µg/mL"}, {"measurement": "MIC", "setting": "E. coli ATCC 25922", "result": 2, "unit": "µg/mL"}, {"measurement": "MIC Aztreonam + inhibitor", "setting": "K. pneumo JMI 4106", "result": "≤0.062", "unit": "µg/mL"}, {"measurement": "MIC Ceftazidime + inhibitor", "setting": "K. pneumo JMI 4106", "result": "≤0.25", "unit": "µg/mL"}, {"measurement": "MIC Meropenem + inhibitor", "setting": "K. pneumo JMI 4106", "result": "≤0.0312", "unit": "µg/mL"}, {"measurement": "MIC", "setting": "K. pneumo JMI 4106", "result": 2, "unit": "µg/mL"}, {"measurement": "MIC Aztreonam + inhibitor", "setting": "K. pneumo JMI 2681", "result": 1, "unit": "µg/mL"}, {"measurement": "MIC Ceftazidime + inhibitor", "setting": "K. pneumo JMI 2681", "result": "≤0.25", "unit": "µg/mL"}, {"measurement": "MIC Meropenem + inhibitor", "setting": "K. pneumo JMI 2681", "result": 0.5, "unit": "µg/mL"}, {"measurement": "MIC", "setting": "K. pneumo JMI 2681", "result": "> 16", "unit": "µg/mL"}, {"measurement": "MIC Aztreonam + inhibitor", "setting": "E. cloacae JMI 36", "result": ">4", "unit": "µg/mL"}, {"measurement": "MIC Ceftazidime + inhibitor", "setting": "E. cloacae JMI 36", "result": 0.5, "unit": "µg/mL"}, {"measurement": "MIC Meropenem + inhibitor", "setting": "E. cloacae JMI 36", "result": 0.062, "unit": "µg/mL"}, {"measurement": "MIC", "setting": "E. cloacae JMI 36", "result": "> 16", "unit": "µg/mL"}, {"measurement": "MIC", "setting": "K. pneumo JMI 2674", "result": "> 16", "unit": "µg/mL"}, {"measurement": "MIC", "setting": "P. aerug JMI 2686", "result": "> 16", "unit": "µg/mL"}, {"measurement": "MIC Meropenem + inhibitor", "setting": "E. coli JMI 10768", "result": 0.062, "unit": "µg/mL"}, {"measurement": "MIC", "setting": "E. coli JMI 10770", "result": "> 16", "unit": "µg/mL"}, {"measurement": "MIC Aztreonam + inhibitor", "setting": "E. coli JMI 11103", "result": 0.5, "unit": "µg/mL"}, {"measurement": "MIC Ceftazidime + inhibitor", "setting": "E. coli JMI 11103", "result": 0.5, "unit": "µg/mL"}, {"measurement": "MIC Meropenem + inhibitor", "setting": "E. coli JMI 11103", "result": 0.062, "unit": "µg/mL"}, {"measurement": "MIC", "setting": "E. coli JMI 11103", "result": 4, "unit": "µg/mL"}]}]}
